Experimental data taken from PubChem BioAssay (NCI).
Where “and” joins values, the source holds several entries; their conditions need not be identical. Equal values may be shown once.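 Compound exposure: 48 hours, 5 concentrations, 96-well plates. Abbreviation: GI50, concentration required for 50% inhibition of growth. TGI: concentration producing complete growth inhibition.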

Columns and labels:
Experiment in all cases: NCI tumour cell line growth inhibition, 48 h
[1] = test system: U251 CNS
[2] = test system: LOX IMVI melanoma
[3] = test system: HCT-116 colon
[4] = test system: SR leukemia
[5] = test system: OVCAR-5 ovarian
[6] = test system: MOLT-4 leukemia
[7] = test system: NCI-H23 lung
[8] = test system: K-562 leukemia
[9] = test system: UO-31 renal
[10] = test system: MDA-MB-231 breast

Row | SMILES | TGI [1] | TGI [2] | TGI [3] | TGI [4] [µM] | TGI [5] [µM] | TGI [6] [µM] | TGI [7] [µM] | TGI [8] [µM] | TGI [9] | GI50 [1] | GI50 [2] | GI50 [4] [µM] | GI50 [5] [µM] | GI50 [6] [µM] | GI50 [7] [µM] | GI50 [8] | GI50 [9] | GI50 [3] [µM] | GI50 [10] [µM] | TGI [10] [µM]
1 | CCOC(=O)N1C/C(=C\c2ccc(N(C)C)cc2)C(=O)/C(=C/c2ccc(N(C)C)cc2)C1 | > 100 µM | > 100 µM | > 100 µM | > 100 | > 100 | > 100 | > 100 | > 100 | > 100 µM | – | – | – | – | – | – | – | – | – | – | –
2 | NNC(=O)C(=O)N/N=C1\CCCC1C(=O)CCC(=O)Nc1cccc(Cl)c1 (stereo not drawn) | > 100 µM | > 100 µM | > 100 µM | – | > 100 | > 100 | > 100 | – | > 100 µM | – | – | – | – | – | – | – | – | – | – | –
3 | COC(=O)N1C=CC2=C(C)C3Nc4ccccc4C3C(C)=C2C1 (stereo not drawn) | > 100 µM | 20.1 µM | 2.57 µM | – | > 100 | 12.3 | > 100 | 14.5 | 3.88 µM | – | – | – | – | – | – | – | – | – | – | –
4 | CCCCCCCCCCCCNC(=S)OCCCC | > 100 µM | 35.8 µM | > 100 µM | > 100 | > 100 | 52.4 | > 100 | > 100 | > 100 µM | – | – | – | – | – | – | – | – | – | – | –
5 | NC(=O)c1c(-c2ccccc2)c(-c2ccccc2)cc2c(=O)c3ccccc3[nH]c12 | > 100 µM | > 100 µM | 35.9 µM | – | > 100 | 44.7 | 43.5 | > 100 | 80.2 µM | – | – | – | – | – | – | – | – | – | – | –
6 | CC[C@@]1(O)C(=O)OCc2c1cc1n(c2=O)Cc2cc3c(N)c(OC)ccc3nc2-1 | 0.201 µM | 0.151 µM | – | – | 0.842 | 0.0711 | 0.142 | – | 0.25 µM | < 0.01 µM | 0.0216 µM | < 0.01 | 0.0543 | < 0.01 | 0.0213 | 0.152 µM | 0.0547 µM | – | – | –
7 | O=S(=O)(c1ccccc1)C1(C2(S(=O)(=O)c3ccccc3)CCN=N2)CCN=N1 (stereo not drawn) | > 100 µM | > 100 µM | > 100 µM | > 100 | > 100 | > 100 | > 100 | > 100 | > 100 µM | – | – | – | – | – | – | – | – | – | – | –
8 | O=[N+]([O-])C(=C1c2ccccc2-c2ccccc21)[N+](=O)[O-] | > 100 µM | > 100 µM | > 100 µM | > 100 | > 100 | > 100 | > 10 | > 100 | > 100 µM | – | – | – | – | – | – | – | – | – | – | –
9 | Cc1nc2ccccc2c(/C=C/c2ccc(F)cc2)c1C(=O)/C=C/c1ccccc1 | 3.18 µM | 3.11 µM | 3.66 µM | – | 3.95 | 6.57 | 5.43 | 8.24 | 2.67 µM | 1.74 µM | 1.69 µM | – | 1.92 | 1.74 | 1.99 | 2.44 µM | 1.29 µM | 1.25 | 2.24 | 6.33
10 | CN(COC(=O)C(C)(C)C)c1nc(N(C)COC(=O)C(C)(C)C)nc(N(C)COC(=O)C(C)(C)C)n1 | – | – | 39.3 µM | > 100 | > 100 | > 100 | > 100 | > 100 | > 100 µM | – | – | – | – | – | – | – | – | – | – | 68.9
11 | Cc1ccc(C)c(NC(=O)C(=O)C(C2C(C)CC(=O)C2CC(=O)O)[N+](=O)[O-])c1 (stereo not drawn) | > 100 µM | > 100 µM | > 100 µM | > 100 | > 100 | > 100 | > 100 | > 100 | > 100 µM | – | – | – | – | – | – | – | – | – | – | –
12 | CN1C=C(C(N)=O)Cc2ccsc21 | > 100 µM | – | > 100 µM | > 100 | > 100 | > 100 | > 100 | > 100 | > 100 µM | – | – | – | – | – | – | – | – | – | – | –
13 | O=S(=O)([O-])c1ccc(C=Nc2ccccc2)c([O-])c1.O=S(=O)([O-])c1ccc(C=Nc2ccccc2)c([O-])c1.[Co+2] | – | > 100 µM | – | > 100 | > 100 | > 100 | > 100 | > 100 | > 100 µM | – | 3.01 µM | 24.9 | 16.1 | 7.71 | > 100 | 2.07 µM | 21 µM | – | – | –
14 | Nc1ncnc2c1ncn2C1(CO)OC(CO)C(O)C1O (stereo not drawn) | > 100 µM | > 100 µM | > 100 µM | > 100 | > 100 | > 100 | > 100 | – | – | – | – | – | – | – | – | – | – | – | – | –
15 | CCOC(=O)C(c1ccsc1)P(=O)(OCC)OCC (stereo not drawn) | 45.4 µM | 19.3 µM | 25.7 µM | – | 37.7 | > 100 | 36.7 | – | 28.4 µM | – | – | – | – | – | – | – | – | – | – | –
16 | CC(C)CC1CC2C(=O)N(c3ccccc3)C(=O)C2c2[nH]c3ccccc3c21 (stereo not drawn) | > 65 µM | > 87.8 µM | 34 µM | 76.4 | > 100 | > 58.7 | > 80.8 | > 42.7 | 79.9 µM | – | – | – | – | – | – | – | – | – | – | –
17 | COc1ccc(-c2cc(-c3ccco3)c(C#N)c(=O)n2C2OC(COC(C)=O)C(OC(C)=O)C(OC(C)=O)C2OC(C)=O)cc1 (stereo not drawn) | > 100 µM and 34.7 µM | > 100 µM and 59.6 µM | > 100 µM and 21.1 µM | > 100 | > 100 | > 100 | > 100 | > 100 | > 100 µM and 51.7 µM | > 100 µM and 16.1 µM | 59.4 µM and 14.1 µM | – | – | – | – | 48.1 µM and 8.84 µM | 40.1 µM and 16.5 µM | – | – | –
18 | NC(=O)c1c(NC(=O)c2ccc(C(F)(F)F)cc2Cl)sc2c1CCC(=O)C2 | 1.75 µM | 1.83 µM | 1.42 µM | > 100 | 2.33 | > 100 | 1.68 | – | 0.809 µM | 0.27 µM | 0.383 µM | 0.305 | 0.468 | 0.361 | 0.288 | 0.126 µM | 0.237 µM | 0.302 | – | –
19 | C=CCC(NCc1ccccc1)c1cn(C(=O)OCC)c2ccccc12 (stereo not drawn) | 39.3 µM | 30.9 µM | 25.7 µM | – | 44.6 | 38.1 | 43.6 | 15 | > 100 µM | 19.2 µM | 17 µM | – | 16 | 10 | 17.7 | 2.37 µM | 30.4 µM | 13 | 18.2 | 44.1
20 | O=C1C=C(c2ccccc2)NC1(c1ccccc1)c1cc(-c2ccccc2)[nH]c1-c1ccccc1 (stereo not drawn) | > 100 µM | – | > 100 µM | > 100 | – | > 100 | > 100 | > 100 | > 100 µM | – | – | – | – | – | – | – | – | – | – | –
